Values quoted from earlier work, collected in patent US8377888B2, “Method of predicting the clinical response to cisplatin or carboplatin chemotherapeutic treatment” (Pangaea Biotech, S.A., priority 2005, dated 2013).

Tests used:
[1] = tested on: MKN28 (14-3-3σ methylation-positive, mutated p53)
[2] = tested on: Colon carcinoma cells lacking 14-3-3σ; conditions: cells initiate but do not maintain G2 arrest
[3] = tested on: MKN74 (14-3-3σ methylation-positive, wild-type p53)
[4] = tested on: 14-3-3σ methylation-negative cell lines; conditions: wild-type or mutated p53
[5] = tested on: non-small cell lung cancer (NSCLC); conditions: per arm of randomized study

Row | Compound | Sensitivity to adriamycin [1] | Cell fate after adriamycin treatment [2] | Sensitivity to adriamycin [3] | Sensitivity to adriamycin [4] | Median survival [5] [months]
1 | COc1cccc2c1C(=O)c1c(O)c3c(c(O)c1C2=O)C[C@@](O)(C(=O)CO)C[C@@H]3O[C@H]1C[C@H](N)[C@H](O)[C@H](C)O1 [adriamycin] | highly sensitive | mitotic catastrophe and cell death | highly sensitive | resistant | –
2 | paclitaxel/carboplatin | – | – | – | – | 8.2
